The values that follow come from article PMC5563514, “Viral polymerase inhibitors T-705 and T-1105 are potential inhibitors of Zika virus replication” (Archives of Virology, 2017).

SMILES strings stand for the structures. Where two headings read alike, the source gives them in different places. A value given as a limit tells only on which side of the number the result lay.

Series [1] in a line: Cytotoxicity against Vero cells (CPE monitoring, neutral red uptake). The conditions noted are these: African green monkey; for CC50 at 72 h: Vero cells, neutral red uptake, three independent experiments. Format: cell-based. Here is the method:
The cytotoxicity of the compounds against Vero cells was determined by monitoring the CPE. Vero cells (2.5 × 10^4/well) were plated in the wells of a 96-well plate. After 24 h, the cell monolayer was incubated with different concentrations of the test compounds for 72 h at 37 °C under a 5% CO2 atmosphere in a CO2 incubator and then monitored for CPE. The appropriate negative and positive controls were used. A neutral red uptake assay was used to assess cell viability. The half-maximal (50%) cytotoxic concentration (CC50) of each compound was determined from the dose-response curve.

For another series, the system named is ZIKV strain SZ01. Put plainly: CPE inhibition assay, anti-ZIKV activity in Vero cells. Format: cell-based, Zika virus. As to conditions: for cell death rate compared with mock-treated ZIKV-infected cells: P < 0.05, two-tailed Student's t-test; for EC50: Zika virus, ZIKV strain SZ01, 68.6 TCID50, Vero cells, neutral red uptake, three independent experiments.
Series [2] relates to YFV. As to conditions: cited from earlier work.
The test system of series [3] is YFV. The conditions noted are these: at low concentrations; cited from earlier work.

What is called CC50 is the concentration that lowers cell viability or growth by half. `CCCCCOc1cnc(O)c(C(N)=O)n1` [Compound 17, 3-hydroxy-6-(pentyloxy)pyrazine-2-carboxamide] registered a CC50 at 72 h in series [1] of 0.26 ± 0.0511 mM.

In series [1], `CC(=O)OCCOCn1ccnc(C(N)=O)c1=O` [Compound 2, 2-((3-carbamoyl-2-oxopyrazin-1(2H)-yl)methoxy) ethyl acetate] yielded a CC50 at 72 h of more than 2 mM.

The compound `CCn1ccnc(C(N)=O)c1=O` [Compound 1, 4-ethyl-3-oxo-3,4-dihydropyrazine-2-carboxamide] yielded a CC50 at 72 h in series [1] of more than 1 mM. Turning to `NC(=O)c1nc(Br)cnc1O` [Compound 11, 6-bromo-3-hydroxypyrazine-2-carboxamide], the CC50 at 72 h in series [1] is more than 2 mM. As to `NC(=O)c1nccn(CC(O)COC(c2ccccc2)(c2ccccc2)c2ccccc2)c1=O` (stereo not shown) [Compound 4, 4-(2-hydroxy-3-(trityloxy)propyl)-3-oxo-3,4-dihydropyrazine-2-carboxamide], in series [1], the CC50 at 72 h is more than 0.5 mM. Still for that read-out and setting: as for `COc1cnc(O)c(C(N)=O)n1` [Compound 12, 3-hydroxy-6-methoxypyrazine-2-carboxamide], the figure is more than 1 mM; as for `NC(=O)c1nccn(CC(O)CO)c1=O` (stereo not shown) [Compound 5, 4-(2,3-dihydroxypropyl)-3-oxo-3,4-dihydropyrazine-2-carboxamide], more than 2 mM; as for `NC(=O)c1nc([N+](=O)[O-])cnc1O` [Compound 10, 6-nitropyrazine-3-hydroxy-2-carboxamide], more than 4 mM.

In the case of `CC(C)Oc1cnc(O)c(C(N)=O)n1` [Compound 15, 6-isopropoxypyrazine-3-hydroxy-2-carboxamide], the CC50 at 72 h in series [1] turned out to be 0.345 ± 0.0484 mM. In the case of `NC(=O)c1nc(F)cn(CC(O)COC(c2ccccc2)(c2ccccc2)c2ccccc2)c1=O` (stereo not shown) [Compound 8, 6-fluoro-4-(2-hydroxy-3-(trityloxy)propyl)-3-oxo-3,4-dihydropyrazine-2-carboxamide], in series [1], the CC50 at 72 h was more than 0.5 mM. As to `CCCCCCCCOc1cnc(O)c(C(N)=O)n1` [Compound 18, 3-hydroxy-6-(octyloxy)pyrazine-2-carboxamide], half-maximal cytotoxicity in series [1] (CC50 at 72 h) was put at 0.245 ± 0.0178 mM. The term EC50 denotes the concentration that produces a half-maximal response. Compound `NC(=O)c1nc(F)c[nH]c1=O` [Compound T-705, favipiravir] had a CC50 at 72 h in series [1] of more than 3 mM. In the series on ZIKV strain SZ01, the “cell death rate compared with mock-treated ZIKV-infected cells” value is on record as “significantly reduced” and the concentration giving a half-maximal response (EC50) came to 111 ± 13.1 µM. `NC(=O)c1nccn(COCCO)c1=O` [Compound 3, 4-((2-hydroxyethoxy)methyl)-3-oxo-3,4-dihydropyrazine-2-carboxamide]: in series [1], the CC50 at 72 h is more than 1 mM. Take `CCCCOc1cnc(O)c(C(N)=O)n1` [Compound 16, 6-butoxy-3-hydroxypyrazine-2-carboxamide]: the midpoint of cytotoxicity in series [1], the CC50 at 72 h, lay at 0.309 ± 0.0152 mM. The same measure, in the same setting: for `CCCOc1cnc(O)c(C(N)=O)n1` [Compound 14, 3-hydroxy-6-propoxypyrazine-2-carboxamide] the value was more than 0.5 mM. Consider `NC(=O)c1ncn([C@@H]2O[C@H](CO)[C@@H](O)[C@H]2O)n1` [Ribavirin], for which the CC50 at 72 h in series [1] was more than 2 mM. In addition, in the series with ZIKV strain SZ01 (Vero cells, ZIKV strain SZ01), the “effect on ZIKV-induced CPE or cell death” value is listed as “little or no effect”. The anti-ZIKV activity result with ZIKV strain SZ01 (at concentrations below 400 μM) was “not active”. `CC(=O)OCCOCn1cc(F)nc(C(N)=O)c1=O` [Compound 7, 2-((3-carbamoyl-5-fluoro-2-oxopyrazin-1(2H)-yl)methoxy) ethyl acetate]: in series [1], the CC50 at 72 h was more than 1 mM. Take `NC(=O)c1nccnc1O` [Compound T-1105, 3-hydroxypyrazine-2-carboxamide]: in series [1], the CC50 at 72 h is more than 4 mM. Moreover, in the series with ZIKV strain SZ01, the “cell death rate compared with mock-treated ZIKV-infected cells” value was “significantly reduced” and it took 97.5 ± 6.8 µM to reach a half-maximal effect (EC50). Turning to `CCCCCCCCCCCCCCCCOCCCOP(=O)(O)CO[C@H](CO)Cn1ccc(N)nc1=O` [CMX001, brincidofovir], the CC50 in series [1] was determined as 11.3 ± 0.2 µM. Also, in the series with ZIKV strain SZ01, the anti-ZIKV activity result is recorded as “not active” and the “effect on ZIKV-induced CPE or cell death” value was “little or no effect”.

Take `NC(=O)c1nc(F)cn(C2OC(CO)C(O)C2O)c1=O` (stereo not shown) [Compound 9, 4-(3,4-dihydroxy-5-(hydroxymethyl)tetrahydrofuran-2-yl)-6-fluoro-3-oxo-3,4-dihydropyrazine-2-carboxamide]: the half-maximal cytotoxic concentration (CC50) at 72 h in series [1] is more than 1 mM. Compound `COCCOc1cnc(O)c(C(N)=O)n1` [Compound 20, 3-hydroxy-6-(2-methoxyethoxy) pyrazine-2-carboxamide] came in with a CC50 at 72 h in series [1] of more than 1 mM. Turning to `NC(=O)c1nccn(C2OC(CO)C(O)C2O)c1=O` (stereo not shown) [Compound 6, 4-(3,4-dihydroxy-5-(hydroxymethyl)tetrahydrofuran-2-yl)-3-oxo-3,4-dihydropyrazine-2-carboxamide], in the series on YFV [2], the “efficacy in a hamster model of YFV infection” value is “effective”. In series [1], this compound yielded a CC50 at 72 h of more than 1 mM. Also, the “activity in cell culture” value in the series on YFV [3] is “only slight activity”. As for `NC(=O)c1nc(OCCO)cnc1O` [Compound 19, 3-hydroxy-6-(2-hydroxyethoxy) pyrazine-2-carboxamide], in series [1], the CC50 at 72 h was more than 1 mM. With `CCOc1cnc(O)c(C(N)=O)n1` [Compound 13, 6-ethoxy-3-hydroxypyrazine-2-carboxamide], the CC50 at 72 h in series [1] is more than 0.5 mM.
